Experimental data taken from patent publication US20060052369A1, “Compositions and methods relating to novel compounds and targets thereof” (The Regents of the University of Michigan, priority 2004, published 2006).
Like-named read-outs stand apart in the source and are kept apart here.

How the values were obtained:
[1] = target: T1, ATPase of sub-mitochondrial particles (mitochondrial F1Fo-ATPase) (Bos taurus, UniProt P13621); test: NADH-coupled ATP hydrolysis kinetics assay with sub-mitochondrial particles; type: biochemical, bovine; details: for mechanism of inhibition: ATP hydrolysis
T1 construct: from tissue; host or cells: sub-mitochondrial particles (SMPs)
Experimental: The mechanism of inhibition for ATP hydrolysis induced by Bz-423 and derivatives of Bz-423 was assayed using an NADH-coupled assay. The ATP hydrolytic activity of the sub-mitochondrial particles (hereinafter SMPs) was measured by coupling the production of ADP to the oxidation of NADH via the pyruvate kinase and lactate dehydrogenase reaction. Briefly, ATP hydrolysis SMPs (0.8 mg; 7.14 μg/well) were added to hydrolysis buffer (100 mM Tris-HCl, pH 8.0 at 25° C., 4 mM MgCl2, […], 0.2 mM EDTA) and vortexed. 125 μL of this suspension was added to each well of a 96-well plate containing 50× drug or DMSO vehicle control (1% DMSO, final). The 96-well plate was then placed at 30° C. in a Molecular Devices Versamax tunable microplate reader and allowed to incubate for 5 min. During this 5 min, a substrate-coupling mixture was prepared (containing X mM ATP, 0.2 mM NADH, 1 mM phosphoenolpyruvate (PEP), 2 U/mL pyruvate kinase (PK), and 2 U/mL lactate dehydrogenase (LDH) in hydrolysis buffer). The rate of hydrolysis was assayed over a range of ATP concentrations (0.1-4.0 mM) at each [Bz]. 125 μL of the substrate-coupling mixture was added to each well, and the rate of NADH oxidation was monitored for 10 min at 340 nm, 30° C. The measured decrease in absorbance over time (in OD/min) was converted to μmol ATP hydrolyzed/min/mg SMP (ε=6220). The velocity data was plotted versus [ATP] for each concentration of [Bz] […] To obtain Ki values and confirm that an uncompetitive model of inhibition was the best fit for the data, three-dimensional fits of the velocity, [ATP], and [Bz] were performed to solve for Vmax, Km, Ki, and Ki* [where Ki indicates Bz binding to the ATPase with the third catalytic site empty (mixed-type inhibition only), and Ki* indicates binding when all three sites have substrate bound (uncompetitive and mixed-type inhibition)]. The following equations were used: Competitive Inhibition: Vo=Vmax[S]/((1+[I]/Ki)Km+[S]) Uncompetitive Inhibition: Vo=Vmax[S]/((1+[I]/Ki*)[S]+Km) Mixed or Noncompetitive Inhibition: Vo=Vmax[S]/((1+[I]/Ki)Km+(1+[I]Ki*)[S])
The results for the o-tert-Butyl derivative of Bz-423 are shown in Table 1 and confirm that this derivative binds the ATPase with an uncompetitive binding mechanism, similar to Bz-423.

[2] = system: rodents; details: two daily doses; cited from earlier work
[3] = target: F1Fo-ATPase (Homo sapiens, UniProt P05496); details: cited from earlier work
[4] = Ki*, Uncompetitive Inhibition model fit, binding when all three sites have substrate bound
[5] = Ki, Competitive Inhibition model fit

| Structure (SMILES) | mechanism of inhibition [1] | Ki [1, 4] [µM] | Ki [1, 5] [µM] | Ki ([1]; Non-competitive Inhibition model fit, binding when all three sites have substrate bound, read-out: Ki*) [µM] | effect on Km ([1]; secondary plots of [Bz] versus Km) | effect on Vmax ([1]; secondary plots of [Bz] versus Vmax) | LD50 [2] [mg/kg] | IC50 [3] [µM] |
| --- | --- | --- | --- | --- | --- | --- | --- | --- |
| CN1C(=O)C(Cc2ccc3ccccc3c2)N=C(c2ccc(O)cc2)c2cc(Cl)ccc21 (centres unmarked) [Bz-423] | uncompetitive | 19 ± 5.8 | 13.32 ± 0.1 | – | – | – | – | – |
| CN1C(=O)C(Cc2ccc(OC(C)(C)C)cc2)N=C(c2ccc(O)cc2)c2cc(Cl)ccc21 (centres unmarked) [o-tert-Butyl] | uncompetitive | 12.7 ± 1.1 | 9.35 ± 2.4 | 12.7 ± 1.1 | decreased | decreased | – | – |
| CC[C@H]1/C=C/C=C/C[C@@H](C)[C@H](O)[C@@](C)(O)C(=O)[C@@H](C)[C@H](O)[C@@H](C)C(=O)[C@@H](C)[C@H](O)[C@@H](C)/C=C/C(=O)O[C@@H]2[C@H](C)[C@H](CC1)O[C@]1(CC[C@H](C)[C@H](C[C@@H](C)O)O1)[C@H]2C [oligomycin] | – | – | – | – | – | – | 0.5 | 0.01 |
